Test results taken from patent EP4238973A1, “SUBSTITUTED 1,2,4-THIADIAZOLYL ISONICOTINAMIDES, SALTS OR N-OXIDES THEREOF AND THEIR USE AS HERBICIDALLY ACTIVE SUBSTANCES” (Bayer AG, priority 2022, dated 2023).

Assays:
Format in all cases: in vivo
Stellaria media [1] = assay: Herbicidal pre-emergence action; details: visual grading after ca. 3 weeks vs untreated controls
Description: (§1) Seeds of mono- and dicotyledonous weed plants were sown in plastic pots (double sowings with one species of mono- and one species of dicotyledonous weed plants per pot), in sandy loam, and covered with soil. The compounds according to the invention, formulated in the form of wettable powders (WP) or as emulsifiable concentrates (EC), were applied to the surface of the covering soil as an aqueous suspension or as an emulsion, with the addition of 0.5% of an additive, at an application rate of 600 litres of water per hectare (converted). Following treatment, the pots were placed in a greenhouse and kept under optimum growth conditions for the test plants. The visual grading of the damage to the test plants is carried out after ca. 3 weeks in comparison to untreated controls (herbicidal effect in percent (%): 100% effect = plants have died, 0% effect = as control plants). Seeds of mono- and dicotyledonous weed plants were sown in plastic pots (double sowings with one species of mono- and one species of dicotyledonous weed plants per pot), in sandy loam, and covered with soil. The compounds according to the invention, formulated in the form of wettable powders (WP) or as emulsifiable concentrates (EC), were applied to the surface of the covering soil as an aqueous suspension or as an emulsion, with the addition of 0.5% of an additive, at an application rate of 600 litres of water per hectare (converted). Following treatment, the pots were placed in a greenhouse and kept under optimum growth conditions for the test plants. The visual grading of the damage to the test plants is carried out after ca. 3 weeks in comparison to untreated controls (herbicidal effect in percent (%): 100% effect = plants have died, 0% effect = as control plants).

Amaranthus retroflexus [2] = assay: Herbicidal pre-emergence action; details: 1280 g/ha, visual grading after ca. 3 weeks vs untreated controls
Description: as §1

Kochia scoparia [3] = assay: Herbicidal pre-emergence action; details: 1280 g/ha, visual grading after ca. 3 weeks vs untreated controls
Description: as §1

Abutilon theophrasti = assay: Herbicidal pre-emergence action; details: 1280 g/ha, visual grading after ca. 3 weeks vs untreated controls
Description: as §1

Echinochloa crus-galli = assay: Herbicidal pre-emergence action; details: 1280 g/ha, visual grading after ca. 3 weeks vs untreated controls
Description: as §1

Veronica persica [4] = assay: Herbicidal pre-emergence action; details: 1280 g/ha, visual grading after ca. 3 weeks vs untreated controls
Description: as §1

Poa annua [5] = assay: Herbicidal pre-emergence action; details: visual grading after ca. 3 weeks vs untreated controls
Description: as §1

Alopecurus myosuroides [6] = assay: Herbicidal pre-emergence action; details: 1280 g/ha, visual grading after ca. 3 weeks vs untreated controls
Description: as §1

Matricaria inodora [7] = assay: Herbicidal pre-emergence action; details: 1280 g/ha, visual grading after ca. 3 weeks vs untreated controls
Description: as §1

Lolium rigidum [8] = assay: Herbicidal pre-emergence action; details: visual grading after ca. 3 weeks vs untreated controls
Description: as §1

Stellaria media [9] = assay: Herbicidal post-emergence action; details: visual assessment after ca. 3 weeks vs untreated controls
Description: (§2) Seeds of mono- and dicotyledonous weed plants were sown in plastic pots (double sowings with one species of mono- and one species of dicotyledonous weed plants per pot), in sandy loam, covered with soil and grown under controlled growth conditions. 2 to 3 weeks after sowing, the test plants were sprayed in the single-leaf stage. The compounds according to the invention, formulated in the form of wettable powders (WP) or as emulsifiable concentrates (EC), were sprayed onto the green plant parts as an aqueous suspension or as an emulsion, with the addition of 0.5% of an additive, at an application rate of 600 litres of water per hectare (converted). The test plants were placed in the greenhouse for ca. 3 weeks under optimum growth conditions, and then the effect of the preparations is assessed visually in comparison with untreated controls (herbicidal effect in percent (%): 100% effect = plants have died, 0% effect = as control plants).
as §2, with “(EC), are” for “(EC), were”, “controls (herbicidaleffectinpercent(%):100%effect=plantshavedied,0%effect=ascontrolplants). [formula]” for “controls (herbicidal effect in percent (%): 100% effect = plants have died, 0% effect = as control plants).”

Amaranthus retroflexus [10] = assay: Herbicidal post-emergence action; details: 1280 g/ha, visual assessment after ca. 3 weeks vs untreated controls
Description: as §2
as §2, with “(EC), are” for “(EC), were”, “controls (herbicidaleffectinpercent(%):100%effect=plantshavedied,0%effect=ascontrolplants). [formula]” for “controls (herbicidal effect in percent (%): 100% effect = plants have died, 0% effect = as control plants).”

Kochia scoparia [11] = assay: Herbicidal post-emergence action; details: visual assessment after ca. 3 weeks vs untreated controls
Description: as §2
as §2, with “(EC), are” for “(EC), were”, “controls (herbicidaleffectinpercent(%):100%effect=plantshavedied,0%effect=ascontrolplants). [formula]” for “controls (herbicidal effect in percent (%): 100% effect = plants have died, 0% effect = as control plants).”

Veronica persica [12] = assay: Herbicidal post-emergence action; details: visual assessment after ca. 3 weeks vs untreated controls
Description: as §2
as §2, with “(EC), are” for “(EC), were”, “controls (herbicidaleffectinpercent(%):100%effect=plantshavedied,0%effect=ascontrolplants). [formula]” for “controls (herbicidal effect in percent (%): 100% effect = plants have died, 0% effect = as control plants).”

Poa annua [13] = assay: Herbicidal post-emergence action; details: visual assessment after ca. 3 weeks vs untreated controls
Description: as §2
as §2, with “(EC), are” for “(EC), were”, “controls (herbicidaleffectinpercent(%):100%effect=plantshavedied,0%effect=ascontrolplants). [formula]” for “controls (herbicidal effect in percent (%): 100% effect = plants have died, 0% effect = as control plants).”

Alopecurus myosuroides [14] = assay: Herbicidal post-emergence action; details: 1280 g/ha, visual assessment after ca. 3 weeks vs untreated controls
Description: as §2
as §2, with “(EC), are” for “(EC), were”, “controls (herbicidaleffectinpercent(%):100%effect=plantshavedied,0%effect=ascontrolplants). [formula]” for “controls (herbicidal effect in percent (%): 100% effect = plants have died, 0% effect = as control plants).”

Matricaria inodora [15] = assay: Herbicidal post-emergence action; details: visual assessment after ca. 3 weeks vs untreated controls
Description: as §2
as §2, with “(EC), are” for “(EC), were”, “controls (herbicidaleffectinpercent(%):100%effect=plantshavedied,0%effect=ascontrolplants). [formula]” for “controls (herbicidal effect in percent (%): 100% effect = plants have died, 0% effect = as control plants).”

Lolium rigidum [16] = assay: Herbicidal post-emergence action; details: visual assessment after ca. 3 weeks vs untreated controls
Description: as §2
as §2, with “(EC), are” for “(EC), were”, “controls (herbicidaleffectinpercent(%):100%effect=plantshavedied,0%effect=ascontrolplants). [formula]” for “controls (herbicidal effect in percent (%): 100% effect = plants have died, 0% effect = as control plants).”

Setaria viridis [17] = assay: Herbicidal pre-emergence action; details: 1280 g/ha, visual grading after ca. 3 weeks vs untreated controls
Description: as §1

Digitaria sanguinalis [18] = assay: Herbicidal pre-emergence action; details: 1280 g/ha, visual grading after ca. 3 weeks vs untreated controls
Description: as §1

Setaria viridis [19] = assay: Herbicidal post-emergence action; details: visual assessment after ca. 3 weeks vs untreated controls
Description: as §2
as §2, with “(EC), are” for “(EC), were”, “controls (herbicidaleffectinpercent(%):100%effect=plantshavedied,0%effect=ascontrolplants). [formula]” for “controls (herbicidal effect in percent (%): 100% effect = plants have died, 0% effect = as control plants).”

Digitaria sanguinalis [20] = assay: Herbicidal post-emergence action; details: visual assessment after ca. 3 weeks vs untreated controls
Description: as §2
as §2, with “(EC), are” for “(EC), were”, “controls (herbicidaleffectinpercent(%):100%effect=plantshavedied,0%effect=ascontrolplants). [formula]” for “controls (herbicidal effect in percent (%): 100% effect = plants have died, 0% effect = as control plants).”

Structure (SMILES)	herbicidal effect in percent (%), STEME (Stellaria media [1]; 1280 g/ha) [%]	herbicidal effect in percent (%), AMARE (Amaranthus retroflexus [2]) [%]	herbicidal effect in percent (%), KCHSC (Kochia scoparia [3]) [%]	herbicidal effect in percent (%), VERPE (Veronica persica [4]) [%]	herbicidal effect in percent (%), POAAN (Poa annua [5]; 1280 g/ha) [%]	herbicidal effect in percent (%), MATIN (Matricaria inodora [7]) [%]	herbicidal effect in percent (%), LOLRI (Lolium rigidum [8]; 320 g/ha) [%]	herbicidal effect in percent (%), LOLRI (Lolium rigidum [8]; 1280 g/ha) [%]	herbicidal effect in percent (%), STEME (Stellaria media [9]; 320 g/ha) [%]	herbicidal effect in percent (%), STEME (Stellaria media [9]; 1280 g/ha) [%]	herbicidal effect in percent (%), AMARE (Amaranthus retroflexus [10]) [%]	herbicidal effect in percent (%), KCHSC (Kochia scoparia [11]; 1280 g/ha) [%]	herbicidal effect in percent (%), VERPE (Veronica persica [12]; 320 g/ha) [%]	herbicidal effect in percent (%), VERPE (Veronica persica [12]; 1280 g/ha) [%]	herbicidal effect in percent (%), POAAN (Poa annua [13]; 320 g/ha) [%]	herbicidal effect in percent (%), POAAN (Poa annua [13]; 1280 g/ha) [%]	herbicidal effect in percent (%), ALOMY (Alopecurus myosuroides [14]) [%]	herbicidal effect in percent (%), MATIN (Matricaria inodora [15]; 320 g/ha) [%]	herbicidal effect in percent (%), MATIN (Matricaria inodora [15]; 1280 g/ha) [%]	herbicidal effect in percent (%), LOLRI (Lolium rigidum [16]; 1280 g/ha) [%]	further results
O=C(Nc1ncns1)c1cc(Cl)ncc1C(F)(F)F [Example I-013, 2-chloro-N-(1,2,4-thiadiazol-5-yl)-5-(trifluoromethyl)pyridine-4-carboxamide]	100	100	100	100	90	100	90	100	100	100	100	100	100	100	100	100	90	100	100	100	herbicidal effect in percent (%), ABUTH (Abutilon theophrasti): 90%; herbicidal effect in percent (%), ECHCG (Echinochloa crus-galli): 100%; herbicidal effect in percent (%), ALOMY (Alopecurus myosuroides [6]): 90%; herbicidal effect in percent (%), KCHSC (Kochia scoparia [11]; 320 g/ha): 100%; herbicidal effect in percent (%), LOLRI (Lolium rigidum [16]; 320 g/ha): 90%
O=C(Nc1ncns1)c1ccncc1I [Example 1-004]	90	90	90	90	90	90	–	100	100	100	100	90	100	100	100	100	100	–	100	100	herbicidal effect in percent (%), SETVI (Setaria viridis [17]): 90%; herbicidal effect in percent (%), STEME (Stellaria media [1]; 320 g/ha): 90%; herbicidal effect in percent (%), DIGSA (Digitaria sanguinalis [18]): 90%; herbicidal effect in percent (%), POAAN (Poa annua [5]; 320 g/ha): 90%; herbicidal effect in percent (%), SETVI (Setaria viridis [19]; 320 g/ha): 90%; herbicidal effect in percent (%), SETVI (Setaria viridis [19]; 1280 g/ha): 90%; herbicidal effect in percent (%), DIGSA (Digitaria sanguinalis [20]; 320 g/ha): 90%; herbicidal effect in percent (%), DIGSA (Digitaria sanguinalis [20]; 1280 g/ha): 100%
O=C(Nc1ncns1)c1cc(F)ncc1Br [Example I-027, 5-bromo-2-fluoro-N-(1,2,4-thiadiazol-5-yl)pyridine-4-carboxamide]	100	–	–	–	90	90	90	100	–	90	90	90	–	90	–	90	90	90	90	–	herbicidal effect in percent (%), POAAN (Poa annua [5]; 320 g/ha): 90%; herbicidal effect in percent (%), SETVI (Setaria viridis [19]; 1280 g/ha): 90%
